We go through eight compounds from article PMC9059125 (Journal of Medicinal Chemistry, 2022).

For series [1] the following is noted: simulated gi fluid, pH 6.8.
The conditions of series [2]: simulated gi fluid, pH 1.2.
Series [3] has as its target T1, human oxytocin receptor (OTR) (Homo sapiens, UniProt P30559).
T1 construct: NIMH PDSP (data provider)
T1 sequence (P30559 1-389): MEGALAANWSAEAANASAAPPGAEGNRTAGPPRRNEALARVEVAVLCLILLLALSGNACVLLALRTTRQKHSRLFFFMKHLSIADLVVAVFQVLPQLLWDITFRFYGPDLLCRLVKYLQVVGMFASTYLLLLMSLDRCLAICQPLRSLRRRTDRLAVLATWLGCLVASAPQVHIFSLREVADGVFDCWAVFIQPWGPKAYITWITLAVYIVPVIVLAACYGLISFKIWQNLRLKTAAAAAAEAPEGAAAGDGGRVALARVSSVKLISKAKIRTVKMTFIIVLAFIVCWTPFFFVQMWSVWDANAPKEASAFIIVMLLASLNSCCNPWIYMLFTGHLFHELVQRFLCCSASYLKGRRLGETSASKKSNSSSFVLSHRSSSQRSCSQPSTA
In words: NIMH PDSP FLIPR-TETRA Ca2+-mobilization assay. In kind it is cell-based. The conditions noted are these: agonist, Ca2+ assay, NIMH PDSP, n ≥ 2; read-out: EC50 ± SEM OTR.

Read-outs that look alike come from different tables or passages of the source. Where a SMILES comes first, the peptide text is derived from it. Bounds are passed on as bounds.

With `[H][C@@]12CCCN1C(=O)[C@@H]1CSSC[C@H](NC(=O)CNC(=O)[C@H](CC(C)C)NC(=O)[C@]3([H])CCCN3C(=O)[C@@H]3CSSC[C@H](NC(=O)CNC(=O)[C@H](CC(C)C)NC2=O)C(=O)N[C@@H](Cc2ccc(O)cc2)C(=O)N[C@@H]([C@@H](C)CC)C(=O)N[C@@H](CCC(N)=O)C(=O)N[C@@H](CC(N)=O)C(=O)N3)C(=O)N[C@@H](Cc2ccc(O)cc2)C(=O)N[C@@H]([C@@H](C)CC)C(=O)N[C@@H](CCC(N)=O)C(=O)N[C@@H](CC(N)=O)C(=O)N1` [c(OT)2] (HELM PEPTIDE1{C.P.L.G.C.Y.I.Q.N.C.P.L.G.C.Y.I.Q.N}$PEPTIDE1,PEPTIDE1,1:R3-14:R3|PEPTIDE1,PEPTIDE1,5:R3-10:R3|PEPTIDE1,PEPTIDE1,1:R1-18:R2$$$V2.0), in series [1], the “t1/2 SIF” value is listed as less than 3 min.

Regarding `CC[C@H](C)[C@@H]1NC(=O)[C@H](CCC(=O)O)NC(=O)[C@@H]2CCCN2C(=O)[C@H](Cc2cnc[nH]2)NC(=O)[C@H](CC(=O)O)NC(=O)[C@H](Cc2ccc(O)cc2)NC(=O)[C@H](CC(N)=O)NC(=O)[C@@H]2CSSC[C@H](NC(=O)CN)C(=O)N[C@@H](CSSC[C@@H](C(N)=O)NC1=O)C(=O)N[C@@H](CO)C(=O)N[C@@H](CC(=O)O)C(=O)N1CCC[C@H]1C(=O)N[C@@H](CCCNC(=N)N)C(=O)N2` [Vc1.1, reference compound], in series [2], the “t1/2 SGF” value was greater than 1440 min. The “t1/2 SIF” value in series [1] (pig) was 144 ± 12 min.

Take `[H][C@@]12CCCN1C(=O)[C@H](CC)NC(=O)[C@H](CC(N)=O)NC(=O)[C@H](CCC(N)=O)NC(=O)[C@H](Cc1ccccc1)NC(=O)[C@H](Cc1ccc(O)cc1)NC(=O)[C@@H]1CSSC[C@H](NC(=O)CNC(=O)[C@H](CCCNC(=N)N)NC2=O)C(=O)N[C@@H]([C@@H](C)O)C(=O)N[C@@H](CCCCN)C(=O)N[C@@H](CO)C(=O)N[C@@H]([C@@H](C)CC)C(=O)N2CCC[C@@]2([H])C(=O)N2CCC[C@@]2([H])C(=O)N[C@@H]([C@@H](C)CC)C(=O)N1` [SFTI-1(VP^[2-9])] (HELM PEPTIDE1{[Abu].P.R.G.C.T.K.S.I.P.P.I.C.Y.F.Q.N}$PEPTIDE1,PEPTIDE1,5:R3-13:R3|PEPTIDE1,PEPTIDE1,1:R1-17:R2$$$V2.0): in series [3], the EC50 (in general, the concentration at which the effect is half-maximal) is greater than 30 µM. The “t1/2 SIF” value in series [1] is less than 3 min.

As for `[H][C@@]12CCCN1C(=O)[C@@H]1CSSC[C@H](NC(=O)CNC(=O)[C@H](CCCNC(=N)N)NC(=O)[C@]3([H])CCCN3C(=O)[C@@H]3CSSC[C@H](NC(=O)CNC(=O)[C@H](CCCNC(=N)N)NC2=O)C(=O)N[C@@H](Cc2ccc(O)cc2)C(=O)N[C@@H](Cc2ccccc2)C(=O)N[C@@H](CCC(N)=O)C(=O)N[C@@H](CC(N)=O)C(=O)N3)C(=O)N[C@@H](Cc2ccc(O)cc2)C(=O)N[C@@H](Cc2ccccc2)C(=O)N[C@@H](CCC(N)=O)C(=O)N[C@@H](CC(N)=O)C(=O)N1` [c(VP)2] (HELM PEPTIDE1{C.P.R.G.C.Y.F.Q.N.C.P.R.G.C.Y.F.Q.N}$PEPTIDE1,PEPTIDE1,1:R3-14:R3|PEPTIDE1,PEPTIDE1,5:R3-10:R3|PEPTIDE1,PEPTIDE1,1:R1-18:R2$$$V2.0), in series [1], the “t1/2 SIF” value is recorded as less than 3 min.

For the compound `[H][C@@]12CCCN1C(=O)[C@]1([H])CCCN1C(=O)[C@H]([C@@H](C)CC)NC(=O)[C@H](CO)NC(=O)[C@H](CCCCN)NC(=O)[C@H]([C@@H](C)O)NC(=O)[C@@H]1CSSC[C@H](NC(=O)[C@H]([C@@H](C)CC)NC2=O)C(=O)N[C@@H](Cc2ccc(O)cc2)C(=O)N[C@@H](Cc2ccccc2)C(=O)N[C@@H](CCC(N)=O)C(=O)N[C@@H](CC(N)=O)C(=O)N1` [SFTI-1(VP^[2-5])] (HELM PEPTIDE1{C.T.K.S.I.P.P.I.C.Y.F.Q.N}$PEPTIDE1,PEPTIDE1,1:R3-9:R3|PEPTIDE1,PEPTIDE1,1:R1-13:R2$$$V2.0), the EC50 in series [3] was greater than 30 µM. Moreover, the “t1/2 SIF” value in series [1] (pig) is recorded as 12 ± 1 min.

As for `[H][C@@]12CCCN1C(=O)[C@@H]1CSSC[C@H](NC(=O)CNC(=O)[C@H](CC(C)C)NC(=O)[C@]3([H])CCCN3C(=O)[C@@H]3CSSC[C@H](NC(=O)CNC(=O)[C@H](CCCNC(=N)N)NC2=O)C(=O)N[C@@H](Cc2ccc(O)cc2)C(=O)N[C@@H]([C@@H](C)CC)C(=O)N[C@@H](CCC(N)=O)C(=O)N[C@@H](CC(N)=O)C(=O)N3)C(=O)N[C@@H](Cc2ccc(O)cc2)C(=O)N[C@@H](Cc2ccccc2)C(=O)N[C@@H](CCC(N)=O)C(=O)N[C@@H](CC(N)=O)C(=O)N1` [c(OT-VP)] (HELM PEPTIDE1{C.P.L.G.C.Y.F.Q.N.C.P.R.G.C.Y.I.Q.N}$PEPTIDE1,PEPTIDE1,1:R3-14:R3|PEPTIDE1,PEPTIDE1,5:R3-10:R3|PEPTIDE1,PEPTIDE1,1:R1-18:R2$$$V2.0), the “t1/2 SIF” value in series [1] is given as less than 3 min.

With `[H][C@@]12CCCN1C(=O)[C@H](CC)NC(=O)[C@H](CC(N)=O)NC(=O)[C@H](CCC(N)=O)NC(=O)[C@H]([C@@H](C)CC)NC(=O)[C@H](Cc1ccc(O)cc1)NC(=O)[C@@H]1CSSC[C@H](NC(=O)CNC(=O)[C@H](CC(C)C)NC2=O)C(=O)N[C@@H]([C@@H](C)O)C(=O)N[C@@H](CCCCN)C(=O)N[C@@H](CO)C(=O)N[C@@H]([C@@H](C)CC)C(=O)N2CCC[C@@]2([H])C(=O)N2CCC[C@@]2([H])C(=O)N[C@@H]([C@@H](C)CC)C(=O)N1` [SFTI-1(OT^[2-9])] (HELM PEPTIDE1{[Abu].P.L.G.C.T.K.S.I.P.P.I.C.Y.I.Q.N}$PEPTIDE1,PEPTIDE1,5:R3-13:R3|PEPTIDE1,PEPTIDE1,1:R1-17:R2$$$V2.0), the concentration giving a half-maximal response (EC50) in series [3] was greater than 30 µM. Moreover, the “t1/2 SIF” value in series [1] (pig) is 3 ± 1 min.

As to `[H][C@@]12CCCN1C(=O)[C@]1([H])CCCN1C(=O)[C@H]([C@@H](C)CC)NC(=O)[C@H](CO)NC(=O)[C@H](CCCCN)NC(=O)[C@H]([C@@H](C)O)NC(=O)[C@@H]1CSSC[C@H](NC(=O)[C@H]([C@@H](C)CC)NC2=O)C(=O)N[C@@H](Cc2ccc(O)cc2)C(=O)N[C@@H]([C@@H](C)CC)C(=O)N[C@@H](CCC(N)=O)C(=O)N[C@@H](CC(N)=O)C(=O)N1` [SFTI-1(OT^[2-5])] (HELM PEPTIDE1{C.T.K.S.I.P.P.I.C.Y.I.Q.N}$PEPTIDE1,PEPTIDE1,1:R3-9:R3|PEPTIDE1,PEPTIDE1,1:R1-13:R2$$$V2.0), in series [3], the concentration for a half-maximal effect (EC50) is greater than 30 µM. Also, in series [1] (pig), the “t1/2 SIF” value is 31 ± 3 min.
